Among the data in patent US8791267B2, “Biaryl PDE4 inhibitors for treating inflammatory, cardiovascular and CNS disorders” (Decode Genetics EHF, priority 2007, dated 2014) are IC50 values, retold here.

Structures are written as SMILES. Some results are limits rather than exact numbers.

For one assay, the target named is PDE4B (Homo sapiens, UniProt Q07343). As to the kind of experiment: In-vitro assay for PDE4 enzymes, real-time enzyme-coupled spectrophotometric assay, PDE4B Activity (Table 10). The assay is classed as biochemical. The settings on record: human PDE4B (hPDE4B), enzyme-coupled spectrophotometric assay; read-out: PDE4B Activity, hPDE4B.
Sequence of PDE4B (Q07343 whole entry): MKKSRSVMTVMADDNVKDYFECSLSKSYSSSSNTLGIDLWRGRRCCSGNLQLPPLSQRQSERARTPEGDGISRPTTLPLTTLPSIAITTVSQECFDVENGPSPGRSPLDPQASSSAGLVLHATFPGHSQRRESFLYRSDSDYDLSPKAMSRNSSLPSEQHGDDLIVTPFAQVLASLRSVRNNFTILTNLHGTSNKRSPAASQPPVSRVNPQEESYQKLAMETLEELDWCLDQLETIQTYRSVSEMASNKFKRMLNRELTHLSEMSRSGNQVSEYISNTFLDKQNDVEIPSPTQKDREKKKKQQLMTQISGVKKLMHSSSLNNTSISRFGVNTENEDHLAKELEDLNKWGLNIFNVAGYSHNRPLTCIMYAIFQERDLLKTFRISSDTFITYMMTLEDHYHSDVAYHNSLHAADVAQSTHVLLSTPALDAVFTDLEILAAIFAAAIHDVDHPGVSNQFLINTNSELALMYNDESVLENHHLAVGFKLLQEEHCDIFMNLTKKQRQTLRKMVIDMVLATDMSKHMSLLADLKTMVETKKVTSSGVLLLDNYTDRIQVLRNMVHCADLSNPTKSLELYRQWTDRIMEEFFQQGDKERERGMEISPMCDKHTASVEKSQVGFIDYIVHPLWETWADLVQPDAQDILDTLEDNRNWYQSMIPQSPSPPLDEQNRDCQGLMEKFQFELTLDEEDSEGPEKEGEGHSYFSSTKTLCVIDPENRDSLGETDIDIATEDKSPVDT
Another assay deals with PDE4 (Homo sapiens, UniProt Q08499). As to the kind of experiment: In-vitro assay for PDE4 enzymes, real-time enzyme-coupled spectrophotometric assay (Table 9). Particulars: human PDE4D; activity class, Table 9; read-out: hPDE4D. The class given is biochemical.
Sequence of PDE4 (Q08499 whole entry): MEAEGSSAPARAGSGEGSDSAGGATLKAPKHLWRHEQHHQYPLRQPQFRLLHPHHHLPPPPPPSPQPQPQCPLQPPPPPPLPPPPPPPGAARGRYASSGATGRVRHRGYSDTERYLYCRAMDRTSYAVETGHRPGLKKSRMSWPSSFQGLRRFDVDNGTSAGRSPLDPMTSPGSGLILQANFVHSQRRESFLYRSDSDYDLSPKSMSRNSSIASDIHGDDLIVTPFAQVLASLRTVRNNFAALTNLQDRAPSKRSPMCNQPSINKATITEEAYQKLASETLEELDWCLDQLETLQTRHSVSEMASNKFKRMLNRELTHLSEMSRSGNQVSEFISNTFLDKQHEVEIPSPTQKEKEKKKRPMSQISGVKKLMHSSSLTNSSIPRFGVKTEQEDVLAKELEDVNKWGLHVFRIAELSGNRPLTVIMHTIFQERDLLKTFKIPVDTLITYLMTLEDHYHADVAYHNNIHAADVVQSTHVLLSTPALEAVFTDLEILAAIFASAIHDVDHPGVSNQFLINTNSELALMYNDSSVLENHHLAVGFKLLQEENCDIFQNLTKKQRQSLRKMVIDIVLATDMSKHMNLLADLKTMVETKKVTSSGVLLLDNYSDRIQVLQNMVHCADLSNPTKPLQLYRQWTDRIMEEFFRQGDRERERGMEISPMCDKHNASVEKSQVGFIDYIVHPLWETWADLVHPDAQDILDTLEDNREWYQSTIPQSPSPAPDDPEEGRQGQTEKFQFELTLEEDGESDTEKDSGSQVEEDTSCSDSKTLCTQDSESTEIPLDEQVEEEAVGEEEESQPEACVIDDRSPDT

Consider `COc1ccc(Cn2cncn2)nc1-c1cccc([N+](=O)[O-])c1` [P-024, 3-methoxy-2-(3-nitro-phenyl)-6-[1,2,4]triazol-1-ylmethyl-pyridine], for which the results for the IC50 on PDE4B and at PDE4 were 21 to 40 µM and less than 5 µM, respectively.
Take `COCc1ccc(OC)c(-c2cccc([N+](=O)[O-])c2)n1` [P-025, 3-methoxy-6-methoxymethyl-2-(3-nitro-phenyl)-pyridine]: the IC50 on PDE4B lay in the range of 21 to 40 µM; on PDE4, 5 to 20 µM.
As to `COc1ccc(CN2CCCC2=O)cc1-c1cccc([N+](=O)[O-])c1` [P-029, 1-(6-Methoxy-3′-nitro-biphenyl-3-ylmethyl)-pyrrolidin-2-one], the IC50 at PDE4B and at PDE4 was less than 5 µM each time.
Regarding `COc1ccc(COC(C)C)nc1-c1cccc([N+](=O)[O-])c1` [P-030, 6-isopropoxymethyl-3-methoxy-2-(3-nitro-phenyl)-pyridine], the IC50 at PDE4B was in the range of 21 to 40 µM; on PDE4, 5 to 20 µM.
For `COc1ccc(CN2CCNC2=O)nc1-c1cccc([N+](=O)[O-])c1` [P-033, 1-[5-methoxy-6-(3-nitro-phenyl)-pyridin-2-ylmethyl]-imidazolidin-2-one], the IC50 on PDE4B and on PDE4 was 5 to 20 µM in each case.
Take `COc1ccc(CN2CCNC2=O)cc1-c1cccc([N+](=O)[O-])c1` [P-034, 1-(6-Methoxy-3′-nitro-biphenyl-3-ylmethyl)-imidazolidin-2-one]: the IC50 on PDE4B and on PDE4 was less than 5 µM in each case.
`COc1ccc(CN2CCCCS2(=O)=O)cc1-c1cccc([N+](=O)[O-])c1` [P-035, 2-(6-Methoxy-3′-nitro-biphenyl-3-ylmethyl)-[1,2]thiazinane 1,1-dioxide]: the IC50 on PDE4B and on PDE4 was less than 5 µM each time.
Take `COc1ccc(CN2C(=O)CCC2=O)cc1-c1cccc([N+](=O)[O-])c1` [P-036, 1-(6-Methoxy-3′-nitro-biphenyl-3-ylmethyl)-pyrrolidine-2,5-dione]: the IC50 on PDE4B was 5 to 20 µM; at PDE4, less than 5 µM.
For `COc1ccc(Cn2ccnc2)cc1-c1ccc2c(c1)OCO2` [P-037, 1-(3-Benzo[1,3]dioxol-5-yl-4-methoxy-benzyl)-1H-imidazole], the IC50 on PDE4B and on PDE4 was less than 5 µM in each case.
For the molecule `COc1ccc(COC2CCCC2)nc1-c1cccc([N+](=O)[O-])c1` [P-038, 6-cyclopentyloxymethyl-3-methoxy-2-(3-nitro-phenyl)-pyridine], the IC50 lay in the range of 21 to 40 µM at PDE4B and 5 to 20 µM on PDE4.
The like results for `COc1ccc(CN2C(=O)CCCC2=O)cc1-c1cccc([N+](=O)[O-])c1` [P-040, 1-(6-Methoxy-3′-nitro-biphenyl-3-ylmethyl)-piperidine-2,6-dione] were, in that order, 5 to 20 µM and 5 to 20 µM.
Consider `COc1ccc(CN2C(=O)C(=O)c3ccccc32)cc1-c1cccc([N+](=O)[O-])c1` [P-041, 1-(6-Methoxy-3′-nitro-biphenyl-3-ylmethyl)-1H-indole-2,3-dione], for which the IC50 was less than 5 µM at PDE4B and 5 to 20 µM on PDE4.
As for `COc1ccc(CN2C(=O)c3ccccc3C2=O)cc1-c1cccc([N+](=O)[O-])c1` [P-042, 2-(6-Methoxy-3′-nitro-biphenyl-3-ylmethyl)-isoindole-1,3-dione], the IC50 is 5 to 20 µM on PDE4B and less than 5 µM at PDE4.
On to `COc1ccc(CN2C(=O)c3ccncc3C2=O)cc1-c1cccc([N+](=O)[O-])c1` [P-043, 2-(6-Methoxy-3′-nitro-biphenyl-3-ylmethyl)-pyrrolo[3,4-c]pyridine-1,3-dione], for which the IC50 was 5 to 20 µM on PDE4B and less than 5 µM at PDE4.
In the case of `COc1ccc(Cn2cncn2)cc1-c1ccc2c(c1)OCO2` [P-044, 1-(3-Benzo[1,3]dioxol-5-yl-4-methoxy-benzyl)-1H-[1,2,4]triazole], the IC50 on PDE4B and at PDE4 was less than 5 µM in each case.
As to `COc1ccc(CN2CCCC2=O)cc1-c1ccc2c(c1)OCO2` [P-045, 1-(3-Benzo[1,3]dioxol-5-yl-4-methoxy-benzyl)-pyrrolidin-2-one], the IC50 was 5 to 20 µM on PDE4B and 20 to 40 µM on PDE4.
The like results for `COc1ccc(Cn2nc3ccccn3c2=O)cc1-c1cccc([N+](=O)[O-])c1` [P-047, 2-(6-Methoxy-3′-nitro-biphenyl-3-ylmethyl)-2H-[1,2,4]triazolo[4,3-a]pyridin-3-one] were, in that order, less than 5 µM and 5 to 20 µM.
Take `COc1ccc(C(=O)c2ccc(F)cc2)c(F)c1-c1cccc([N+](=O)[O-])c1` [P-049]: the IC50 on PDE4B and at PDE4 was less than 5 µM each time.
`COc1ccc(Cc2ccc(F)cc2)c(F)c1-c1cccc([N+](=O)[O-])c1` [P-050]: the IC50 on PDE4B and on PDE4 was less than 5 µM in each case.
As to `COc1ccc(CN2C(=O)CCC2=O)cc1-c1ccc2c(c1)OCO2` [P-053, 1-(3-Benzo[1,3]dioxol-5-yl-4-methoxy-benzyl)-pyrrolidine-2,5-dione], the IC50 at PDE4B was in the range of 21 to 40 µM; on PDE4, 5 to 20 µM.
`COc1ccc(CN2C(=O)c3cccnc3C2=O)cc1-c1cccc([N+](=O)[O-])c1` [P-055, 6-(6-Methoxy-3′-nitro-biphenyl-3-ylmethyl)-pyrrolo[3,4-b]pyridine-5,7-dione]: the IC50 is 5 to 20 µM on PDE4B and less than 5 µM on PDE4.
On to `O=[N+]([O-])c1cccc(-c2nc(Cc3ccc(F)cc3)ccc2OC(F)F)c1` [P-057], for which the IC50 at PDE4B and at PDE4 was less than 5 µM each time.
As to `COc1ccc(Cn2cncn2)cc1-c1cccc(F)c1` [P-058, 1-(3′-Fluoro-6-methoxy-biphenyl-3-ylmethyl)-1H-[1,2,4]triazole], the IC50 at PDE4B was 5 to 20 µM; on PDE4, less than 5 µM.
On the same counts, the results for `COc1ccc(Cc2c(C)noc2C)cc1-c1ccc2c(c1)OCO2` [P-062, 4-(3-Benzo[1,3]dioxol-5-yl-4-methoxy-benzyl)-3,5-dimethyl-isoxazole] are less than 5 µM and less than 5 µM.
As for `COc1ccc(Cn2cnnc2)cc1-c1cccc([N+](=O)[O-])c1` [P-066, 4-(6-Methoxy-3′-nitro-biphenyl-3-ylmethyl)-4H-[1,2,4]triazole], the IC50 at PDE4B and at PDE4 was less than 5 µM in each case.
On to `O=[N+]([O-])c1cccc(-c2cc(Cc3ccc(F)cc3)ccc2OC(F)F)c1` [P-067, 2-Difluoromethoxy-5-(4-fluoro-benzyl)-3′-nitro-biphenyl], for which the IC50 on PDE4B and on PDE4 was less than 5 µM throughout.
As for `COc1ccc(CN2CC[C@H](O)C2)cc1-c1cccc([N+](=O)[O-])c1` [P-070, (S)-1-(6-Methoxy-3′-nitro-biphenyl-3-ylmethyl)-pyrrolidin-3-ol], the IC50 is 21 to 40 µM on PDE4B and less than 5 µM on PDE4.
Take `COc1ccc(CN2CC[C@@H](O)C2)cc1-c1cccc([N+](=O)[O-])c1` [P-071, (R)-1-(6-Methoxy-3′-nitro-biphenyl-3-ylmethyl)-pyrrolidin-3-01]: the IC50 at PDE4B is 21 to 40 µM; on PDE4 it was less than 5 µM.
Regarding `COc1ccc(CN2CCC[C@H]2CO)cc1-c1cccc([N+](=O)[O-])c1` [P-072, [(S)-1-(6-Methoxy-3′-nitro-biphenyl-3-ylmethyl)-pyrrolidin-2-yl]-methanol], the IC50 lay in the range of 21 to 40 µM on PDE4B and 5 to 20 µM on PDE4.
As for `COc1ccc(C(O)c2ccnn2C)cc1-c1ccc2c(c1)OCO2` (stereo not drawn) [P-073, (3-Benzo[1,3]dioxol-5-yl-4-methoxy-phenyl)-(2-methyl-2H-pyrazol-3-yl)-methanol], the IC50 is 21 to 40 µM at PDE4B and less than 5 µM at PDE4.
